Counter-ions that a name gives are not always drawn.
Test: in vitro
Conditions: rat, gh3-tre-luc cells, AC50 (uM) modified / 1000

Row | Compound | CC50 at 24 h
1 | Cc1ccc(OP(=O)(Oc2ccc(C)cc2C)Oc2ccc(C)cc2C)c(C)c1 [TXP] | > 100 µM
2 | O=C1CC[C@@H](C(=O)O)N1 [Pidolic acid] | > 50 µM
3 | Cc1cc(C)c(C(=O)O)c(C)c1 [2,4,6-Trimethylbenzoic acid] | > 90 µM
4 | CC(=O)Nc1ccc(S(N)(=O)=O)cc1 [4'-Sulfamylacetanilide] | > 90 µM
5 | CC(=O)OC/C=C/c1ccccc1 [3-Phenylprop-2-en-1-yl acetate] | > 90 µM
6 | O=P(c1ccccc1)(c1ccccc1)c1ccccc1 [Triphenylphosphine oxide] | > 90 µM
7 | CCCCP(CCCC)CCCC [Tributylphosphine] | > 90 µM
8 | CC/C=C\CC/C=C/C=O [trans-2,cis-6-Nonadienal] | > 90 µM
9 | C[C@@H](c1ncncc1F)[C@](O)(Cn1cncn1)c1ccc(F)cc1F [Voriconazole] | > 50 µM
10 | C[C@]12C=CC(=O)C=C1CC[C@@H]1[C@@H]2[C@@H](O)C[C@@]2(C)[C@H]1CC[C@]2(O)C(=O)CO [Prednisolone] | > 90 µM
11 | CCOC(=O)[C@H](CCc1ccccc1)N[C@@H](C)C(=O)N1C(=O)N(C)C[C@H]1C(=O)O [Imidapril hydrochloride] | > 50 µM
12 | CCC1CO1 (stereo not drawn) [1,2-Epoxybutane] | > 90 µM
13 | CN(C)CCc1c[nH]c2ccc(CS(=O)(=O)N3CCCC3)cc12 [Almotriptan] | > 50 µM
14 | CC(=O)Nc1ccc(OCCOCCOc2ccc(NC(C)=O)cc2)cc1 [Diamfenetide] | > 50 µM
15 | N=c1c[n+](N2CCOCC2)[n-]o1 [3-Morpholinosydnonimine hydrochloride] | > 50 µM
16 | C1CCCNCCC1 [Heptamethyleneimine] | > 90 µM
17 | CN(Cc1ccccc1)Cc1ccccc1 [Dibemethine] | > 50 µM
18 | Cc1ccc(S(=O)(=O)O)cc1 [4-Methylbenzenesulfonic acid] | > 90 µM
19 | CCOC(=O)CCC(=O)OCC [Diethyl butanedioate] | > 90 µM
20 | Cc1ccc(C2(O)CCN(CCCC(=O)c3ccc(F)cc3)CC2)cc1 [Moperone] | 30.1 µM

Row | Compound | CC50 at 24 h
21 | ON=C1CCCCC1 [Cyclohexanone oxime] | > 90 µM
22 | CC1=C(CC(=O)O)c2cc(F)ccc2/C1=C\c1ccc(S(C)(=O)=O)cc1 [Sulindac sulfone] | > 50 µM
23 | CCCCCCCCCCCCCC[N+](C)(C)C [Myristyltrimethylammonium chlorideN,N,N-Trimethyltetradecan-1-aminium chloride] | 9.07 µM
24 | O=C(O)Cc1sc(-c2ccccc2)nc1-c1ccc(Cl)cc1 [Fentiazac] | > 50 µM
25 | Cc1occc1S [2-Methyl-3-furanthiol] | > 90 µM
26 | Cc1cccc(Nc2ccncc2S(=O)(=O)NC(=O)NC(C)C)c1 [Torsemide] | > 20 µM
27 | Cc1ccc(/C(=C\CN2CCCC2)c2ccccn2)cc1 [Triprolidine hydrochloride monohydrate] | 58.4 µM
28 | [O-][n+]1ccc(Cl)cc1 [4-Chloropyridine 1-oxide] | > 100 µM
29 | O=C(N/N=C/c1ccccc1O)c1ccncc1 [Salinazid] | > 50 µM
30 | CC1(C)[C@H]2CC[C@]1(C)C(=O)C2=O [(+)Camphorquinone] | > 90 µM
31 | O=S(=O)(O)c1ccc(Cl)cc1 [4-Chlorobenzenesulfonic acid] | > 90 µM
32 | CC(C)(C)c1cc(/C=C2\SC(N)=NC2=O)cc(C(C)(C)C)c1O [Darbufelone mesylate] | 23.6 µM
33 | CCCCCCCCCCCCCOC(=O)CCSCCC(=O)OCCCCCCCCCCCCC [Di(tridecyl) thiodipropionate] | > 20 µM
34 | CNCC(O)c1ccc(OC(=O)C(C)(C)C)c(OC(=O)C(C)(C)C)c1 (stereo not drawn) [Dipivefrin hydrochloride] | 10.3 µM
35 | Cc1ccc(O)c(O)c1 [4-Methylcatechol] | 38.5 µM
36 | C=CCNCC=C [Diallylamine] | > 90 µM
37 | C[N+](C)(C)CCCCCCCCCC[N+](C)(C)C [Decamethonium bromide] | > 50 µM
38 | CN(C)C(C)(C)CO [2-(Dimethylamino)-2-methylpropan-1-ol] | > 90 µM
39 | NCC[C@H](O)C(=O)N[C@@H]1C[C@H](N)[C@@H](O[C@H]2O[C@H](CN)[C@@H](O)[C@H](O)[C@H]2N)[C@H](O[C@@H]2O[C@H](CO)C(O)[C@H]2O)[C@H]1O (stereo partly drawn) [Butirosin disulfate] | > 20 µM
40 | CCCCCCC(=O)CCCCCC/C=C/C[C@@H](O)[C@H](O)[C@@](N)(CO)C(=O)O [Myriocin] | > 50 µM

Row | Compound | CC50 at 24 h
41 | CC(O)CN (stereo not drawn) [1-Amino-2-propanol] | > 90 µM
42 | O=S(=O)(O)c1ccccc1/C=C/c1ccc(-c2ccc(/C=C/c3ccccc3S(=O)(=O)O)cc2)cc1 [Disodium 4,4'-bis(2-sulfostyryl)biphenyl] | > 80 µM
43 | CC1=CC(C)(C)Nc2ccccc21 [1,2-Dihydro-2,2,4-trimethylquinoline] | > 90 µM
44 | COC(=O)CCCC(=O)O [5-Methoxy-5-oxopentanoic acid] | > 90 µM
45 | CCCCC(CC)COC(=O)CCCCC(=O)OCC(CC)CCCC (stereo not drawn) [Bis(2-ethylhexyl)hexanedioate] | > 90 µM
46 | O=C(O)[C@@H]1C[C@H](CP(=O)(O)O)CCN1 (racemic) [Selfotel] | > 50 µM
47 | COC(=O)CCS [3-Mercaptopropionic acid methyl ester] | > 90 µM
48 | Cc1c(C(=O)O)c(O)cc2c1C(=O)c1c(O)c(C3OC(CO)C(O)C(O)C3O)c(O)c(O)c1C2=O (stereo not drawn) [Cochineal] | 29.1 µM
49 | [H]/N=C(/N)NS(=O)(=O)c1ccc(N)cc1 [Sulfaguanidine] | > 20 µM
50 | O=[N+]([O-])c1cc(C2CCCCC2)c(O)c([N+](=O)[O-])c1 [Dinex] | 8.98 µM
51 | C[Si](C)(C)O[Si](O)(O)O [Trimethylsilyl silicate] | > 90 µM
52 | O=C1OC(c2ccc(O)c(S(=O)(=O)O)c2)(c2ccc(O)c(S(=O)(=O)O)c2)c2c(Br)c(Br)c(Br)c(Br)c21 [Sulfobromophthalein] | > 50 µM
53 | Cc1ccc(C(=O)c2ccccc2)cc1 [4-Methylbenzophenone] | > 90 µM
54 | CCCCOCCOC(=O)COc1nc(Cl)c(Cl)cc1Cl [Triclopyr butotyl] | > 90 µM
55 | CC(C)OB(OC(C)C)OC(C)C [Triisopropyl orthoborate] | > 90 µM
56 | CSc1ccc(Oc2ccc(S(N)(=O)=O)cc2CN(C)C)cc1C [UK-416244] | 36.3 µM
57 | CN1CCN(C2=Nc3cc(Cl)ccc3Nc3ccccc32)CC1 [Clozapine] | 15.9 µM
58 | CN1c2c(nc(N)[nH]c2=O)NCC1CNc1ccc(C(=O)N[C@@H](CCC(=O)O)C(=O)O)cc1 (stereo partly drawn) [Disodium 5-methyltetrahydrofolate] | > 50 µM

Same assay, conditions: rat, gh3-tre-luc cells, AC50 (uM) modified / 1000, Tox21_110001=Tox21_112688; viability, 1 nM T3 present, 24 h

Row | Compound | CC50 at 24 h
59 | CCCC1CCCCN1 (racemic) [dl-Coniine] | > 50 µM

Same assay, conditions: rat, gh3-tre-luc cells, AC50 (uM) modified / 1000, Tox21_110001=Tox21_113416; viability, 1 nM T3 present, 24 h

Row | Compound | CC50 at 24 h
60 | COP(=S)(OC)Oc1cc(Cl)c(Cl)cc1Cl [Fenchlorphos] | > 50 µM

Same assay, conditions: rat, gh3-tre-luc cells, AC50 (uM) modified / 1000, Tox21_110001=Tox21_201304; viability, 1 nM T3 present, 24 h

Row | Compound | CC50 at 24 h
61 | CCCCCCCCCCCC#N [Dodecanenitrile] | > 90 µM

Same assay, conditions: rat, gh3-tre-luc cells, AC50 (uM) modified / 1000, Tox21_110001=Tox21_201315; viability, 1 nM T3 present, 24 h

Row | Compound | CC50 at 24 h
62 | CCOC(=O)C1OC1(C)c1ccccc1 (stereo not drawn) [Ethyl methylphenylglycidate] | > 90 µM

Same assay, conditions: rat, gh3-tre-luc cells, AC50 (uM) modified / 1000, Tox21_110001=Tox21_202464; viability, 1 nM T3 present, 24 h

Row | Compound | CC50 at 24 h
63 | CC(=O)/C=C/c1ccc2c(c1)OCO2 [Piperonal acetone] | 57.5 µM

Same assay, conditions: rat, gh3-tre-luc cells, AC50 (uM) modified / 1000, Tox21_110001=Tox21_300700; viability, 1 nM T3 present, 24 h

Row | Compound | CC50 at 24 h
64 | COP(=S)(OC)Oc1nc(Cl)c(Cl)cc1Cl [Chlorpyrifos-methyl] | > 90 µM

Same assay, conditions: rat, gh3-tre-luc cells, AC50 (uM) modified / 1000, Tox21_110001=Tox21_301334; viability, 1 nM T3 present, 24 h

Row | Compound | CC50 at 24 h
65 | COP(=S)(OC)Oc1cc(Cl)c(Cl)cc1Cl [Fenchlorphos] | > 90 µM

Same assay, conditions: rat, gh3-tre-luc cells, AC50 (uM) modified / 1000, Tox21_110001=Tox21_301414; viability, 1 nM T3 present, 24 h

Row | Compound | CC50 at 24 h
66 | CCC(C)(C#N)N=NC(C)(C#N)CC (stereo not drawn) [2,2'-Azobis(2-methylbutanenitrile)] | > 90 µM

Reference: PMC6792352, “Limited Chemical Structural Diversity Found to Modulate Thyroid Hormone Receptor in the Tox21 Chemical Library” (Environmental Health Perspectives, 2019)
